Converted amounts (≈) assume the structure as drawn.
Key:
Experiment in all cases: Bacterial growth minimal inhibitory concentration, microdilution
Type in all cases: cell-based
[1] = system: Klebsiella pneumoniae A651; details: multiply-resistant, quinolone-resistant strain, cation-adjusted Mueller Hinton Broth, read-out: MIC for K. pneumoniae A651
Protocol: (§1) Minimal Inhibitory Concentrations (MICs; mg/l) were determined in cation-adjusted Mueller Hinton Broth by a microdilution method following the description given in “Methods for Dilution Antimicrobial Susceptibility Tests for Bacteria that Grow Aerobically”, Approved standard, 7th ed., Clinical and Laboratory Standards Institute (CLSI) Document M7-A7, Wayne, Pa., USA, 2006.
(§2) All Example compounds were tested against several Gram positive and especially Gram negative bacteria. […] Staphylococcus aureus A798, Klebsiella pneumoniae A651 and Acinetobacter baumanii T6474 are multiply-resistant strains (in particular quinolone-resistant), while Moraxella catarrhalis A894 and E. coli ATCC 25922 are quinolone-sensitive strains.

E. coli ATCC 25922 = details: Escherichia coli, ATCC25922; quinolone-sensitive strain; cation-adjusted Mueller Hinton Broth
Protocol: as §1, §2

[2] = system: Acinetobacter baumanii T6474; details: Acinetobacter baumannii, multiply-resistant, quinolone-resistant strain, cation-adjusted Mueller Hinton Broth
Protocol: as §1, §2

[3] = system: Staphylococcus aureus A798; details: multiply-resistant, quinolone-resistant strain, cation-adjusted Mueller Hinton Broth, read-out: MIC for S. aureus A798
Protocol: as §1, §2

[4] = system: Moraxella catarrhalis A894; details: quinolone-sensitive strain, cation-adjusted Mueller Hinton Broth
Protocol: as §1, §2

| Compound | MIC [1] [µg/mL] | MIC (E. coli ATCC 25922) [µg/mL] | MIC [2] [µg/mL] | MIC [3] [µg/mL] | MIC [4] [µg/mL] |
| --- | --- | --- | --- | --- | --- |
| O=C1COc2ccc(CNC[C@H]3CC[C@H](Nc4nc5c(cc4F)c(=O)c(C(=O)O)cn5C4CC4)CC3)nc2N1 [Example 8, trans-1-Cyclopropyl-6-fluoro-4-oxo-7-(4-{[(3-oxo-3,4-dihydro-2H-pyrido[3,2-b][1,4]oxazin-6-ylmethyl)-amino]-methyl}-cyclohexylamino)-1,4-dihydro-[1,8]naphthyridine-3-carboxylic acid] | 8 (≈ 14.9 µM) | 0.5 (≈ 0.932 µM) | > 8 | > 8 | 0.25 (≈ 0.466 µM) |
| O=C1CSc2ccc(CN3CCC(CCNc4nc5c(cc4F)c(=O)c(C(=O)O)cn5C4CC4)CC3)nc2N1 [Example 6, 1-Cyclopropyl-6-fluoro-4-oxo-7-{2-[1-(3-oxo-3,4-dihydro-2H-pyrido[3,2-b][1,4]thiazin-6-ylmethyl)-piperidin-4-yl]-ethylamino}-1,4-dihydro-[1,8]naphthyridine-3-carboxylic acid] | 2 (≈ 3.62 µM) | 2 (≈ 3.62 µM) | 0.5 (≈ 0.905 µM) | > 8 | 0.5 (≈ 0.905 µM) |
| Cn1cc(C(=O)O)c(=O)c2cc(F)c(N[C@H]3CC[C@H](CNCc4ccc5c(n4)NC(=O)CS5)CC3)nc21 [Example 13, trans-6-Fluoro-1-methyl-4-oxo-7-(4-{[(3-oxo-3,4-dihydro-2H-pyrido[3,2-b][1,4]thiazin-6-ylmethyl)-amino]-methyl}-cyclohexylamino)-1,4-dihydro-[1,8]naphthyridine-3-carboxylic acid] | 0.25 (≈ 0.475 µM) | 0.063 (≈ 0.12 µM) | 0.125 (≈ 0.237 µM) | 1 (≈ 1.9 µM) | 0.031 (≈ 0.0589 µM) |
| Cn1cc(C(=O)O)c(=O)c2cc(F)c(N3CCC(CCNCc4ccc5c(n4)NC(=O)CS5)CC3)nc21 [Example 17, 6-Fluoro-1-methyl-4-oxo-7-(4-{2-[(3-oxo-3,4-dihydro-2H-pyrido[3,2-b][1,4]thiazin-6-ylmethyl)-amino]-ethyl}-piperidin-1-yl)-1,4-dihydro-[1,8]naphthyridine-3-carboxylic acid] | 0.5 (≈ 0.949 µM) | 0.125 (≈ 0.237 µM) | 0.125 (≈ 0.237 µM) | 0.5 (≈ 0.949 µM) | 0.031 (≈ 0.0589 µM) |
| O=C1CSc2ccc(CNC3CCN(CCc4nc5c(cc4F)c(=O)c(C(=O)O)cn5C4CC4)CC3)nc2N1 [Example 3, 1-Cyclopropyl-6-fluoro-4-oxo-7-(2-{4-[(3-oxo-3,4-dihydro-2H-pyrido[3,2-b][1,4]thiazin-6-ylmethyl)-amino]-piperidin-1-yl}-ethyl)-1,4-dihydro-[1,8]naphthyridine-3-carboxylic acid] | 1 (≈ 1.81 µM) | 0.25 (≈ 0.452 µM) | 4 (≈ 7.24 µM) | 2 (≈ 3.62 µM) | 0.5 (≈ 0.905 µM) |
| Cn1cc(C(=O)O)c(=O)c2cc(F)c(N3CCC(CCNCc4ccc5c(n4)NC(=O)CO5)CC3)nc21 [Example 16, 6-Fluoro-1-methyl-4-oxo-7-(4-{2-[(3-oxo-3,4-dihydro-2H-pyrido[3,2-b][1,4]oxazin-6-ylmethyl)-amino]-ethyl}-piperidin-1-yl)-1,4-dihydro-[1,8]naphthyridine-3-carboxylic acid] | 1 (≈ 1.96 µM) | 0.25 (≈ 0.49 µM) | 0.5 (≈ 0.979 µM) | 2 (≈ 3.92 µM) | 0.125 (≈ 0.245 µM) |
| O=C1CSc2ccc(CNCCC3CCN(c4nc5c(cc4F)c(=O)c(C(=O)O)cn5C4CC4)CC3)nc2N1 [Example 5, 1-Cyclopropyl-6-fluoro-4-oxo-7-(4-{2-[(3-oxo-3,4-dihydro-2H-pyrido[3,2-b][1,4]thiazin-6-ylmethyl)-amino]-ethyl}-piperidin-1-yl)-1,4-dihydro-[1,8]naphthyridine-3-carboxylic acid] | 2 (≈ 3.62 µM) | 0.5 (≈ 0.905 µM) | 1 (≈ 1.81 µM) | 8 (≈ 14.5 µM) | 0.125 (≈ 0.226 µM) |
| O=C1CSc2ccc(CNC3CCN(c4nc5c(cc4F)c(=O)c(C(=O)O)cn5C4CC4)CC3)nc2N1 [Example 10, 1-Cyclopropyl-6-fluoro-4-oxo-7-{4-[(3-oxo-3,4-dihydro-2H-pyrido[3,2-b][1,4]thiazin-6-ylmethyl)-amino]-piperidin-1-yl}-1,4-dihydro-[1,8]naphthyridine-3-carboxylic acid] | 1 (≈ 1.91 µM) | 0.5 (≈ 0.953 µM) | 0.25 (≈ 0.477 µM) | 4 (≈ 7.63 µM) | 0.063 (≈ 0.12 µM) |

Now from value to compound:

| MIC [1] [µg/mL] | MIC (E. coli ATCC 25922) [µg/mL] | MIC [2] [µg/mL] | MIC [3] [µg/mL] | MIC [4] [µg/mL] | Compound |
| --- | --- | --- | --- | --- | --- |
| 8 (≈ 14.9 µM) | 2 (≈ 3.72 µM) | 8 (≈ 14.9 µM) | > 8 | 1 (≈ 1.86 µM) | O=C1COc2ccc(CNCCN3CCN(c4nc5c(cc4F)c(=O)c(C(=O)O)cn5C4CC4)CC3)nc2N1 [Example 12, 1-Cyclopropyl-6-fluoro-4-oxo-7-(4-{2-[(3-oxo-3,4-dihydro-2H-pyrido[3,2-b][1,4]oxazin-6-ylmethyl)-amino]-ethyl}-piperazin-1-yl)-1,4-dihydro-[1,8]naphthyridine-3-carboxylic acid] |
| 0.5 (≈ 0.905 µM) | 0.25 (≈ 0.452 µM) | 0.125 (≈ 0.226 µM) | 1 (≈ 1.81 µM) | 0.125 (≈ 0.226 µM) | O=C1CSc2ccc(CNC[C@H]3CC[C@H](Nc4nc5c(cc4F)c(=O)c(C(=O)O)cn5C4CC4)CC3)nc2N1 [Example 1, trans-1-Cyclopropyl-6-fluoro-4-oxo-7-(4-{[(3-oxo-3,4-dihydro-2H-pyrido[3,2-b][1,4]thiazin-6-ylmethyl)-amino]-methyl}-cyclohexylamino)-1,4-dihydro-[1,8]naphthyridine-3-carboxylic acid] |
| 4 (≈ 7.43 µM) | 0.5 (≈ 0.928 µM) | 2 (≈ 3.71 µM) | > 8 | 0.031 (≈ 0.0576 µM) | O=C1CSc2ccc(CNCC3CCN(c4nc5c(cc4F)c(=O)c(C(=O)O)cn5C4CC4)CC3)nc2N1 [Example 7, 1-Cyclopropyl-6-fluoro-4-oxo-7-(4-{[(3-oxo-3,4-dihydro-2H-pyrido[3,2-b][1,4]thiazin-6-ylmethyl)-amino]-methyl}-piperidin-1-yl)-1,4-dihydro-[1,8]naphthyridine-3-carboxylic acid] |
| 0.5 (≈ 0.925 µM) | 0.125 (≈ 0.231 µM) | 0.063 (≈ 0.117 µM) | 1 (≈ 1.85 µM) | 0.031 (≈ 0.0573 µM) | CCn1cc(C(=O)O)c(=O)c2cc(F)c(N[C@H]3CC[C@H](CNCc4ccc5c(n4)NC(=O)CS5)CC3)nc21 [Example 15, trans-1-Ethyl-6-fluoro-4-oxo-7-(4-{[(3-oxo-3,4-dihydro-2H-pyrido[3,2-b][1,4]thiazin-6-ylmethyl)-amino]-methyl}-cyclohexylamino)-1,4-dihydro-[1,8]naphthyridine-3-carboxylic acid] |
| 1 (≈ 1.96 µM) | 0.125 (≈ 0.245 µM) | 1 (≈ 1.96 µM) | 8 (≈ 15.7 µM) | 0.063 (≈ 0.123 µM) | Cn1cc(C(=O)O)c(=O)c2cc(F)c(N[C@H]3CC[C@H](CNCc4ccc5c(n4)NC(=O)CO5)CC3)nc21 [Example 14, trans-6-Fluoro-1-methyl-4-oxo-7-(4-{[(3-oxo-3,4-dihydro-2H-pyrido[3,2-b][1,4]oxazin-6-ylmethyl)-amino]-methyl}-cyclohexylamino)-1,4-dihydro-[1,8]naphthyridine-3-carboxylic acid] |
| 2 (≈ 3.62 µM) | 1 (≈ 1.81 µM) | 8 (≈ 14.5 µM) | > 8 | 1 (≈ 1.81 µM) | O=C1CSc2ccc(CNCC3CCN(Cc4nc5c(cc4F)c(=O)c(C(=O)O)cn5C4CC4)CC3)nc2N1 [Example 9, 1-Cyclopropyl-6-fluoro-4-oxo-7-(4-{[(3-oxo-3,4-dihydro-2H-pyrido[3,2-b][1,4]thiazin-6-ylmethyl)-amino]-methyl}-piperidin-1-ylmethyl)-1,4-dihydro-[1,8]naphthyridine-3-carboxylic acid] |
| 2 (≈ 3.61 µM) | 1 (≈ 1.81 µM) | 2 (≈ 3.61 µM) | > 8 | 0.25 (≈ 0.452 µM) | O=C1CSc2ccc(CNCCN3CCN(c4nc5c(cc4F)c(=O)c(C(=O)O)cn5C4CC4)CC3)nc2N1 [Example 4, 1-Cyclopropyl-6-fluoro-4-oxo-7-(4-{2-[(3-oxo-3,4-dihydro-2H-pyrido[3,2-b][1,4]thiazin-6-ylmethyl)-amino]-ethyl}-piperazin-1-yl)-1,4-dihydro-[1,8]naphthyridine-3-carboxylic acid] |
| 1 (≈ 1.86 µM) | 0.5 (≈ 0.928 µM) | 0.5 (≈ 0.928 µM) | 4 (≈ 7.43 µM) | 0.25 (≈ 0.464 µM) | O=C1CSc2ccc(CN[C@H]3CC[C@H](Nc4nc5c(cc4F)c(=O)c(C(=O)O)cn5C4CC4)CC3)nc2N1 [Example 2, trans-1-Cyclopropyl-6-fluoro-4-oxo-7-{4-[(3-oxo-3,4-dihydro-2H-pyrido[3,2-b][1,4]thiazin-6-ylmethyl)-amino]-cyclohexylamino}-1,4-dihydro-[1,8]naphthyridine-3-carboxylic acid] |
| 8 (≈ 14.5 µM) | 2 (≈ 3.62 µM) | > 8 | 8 (≈ 14.5 µM) | 1 (≈ 1.81 µM) | O=C1CSc2ccc(CNCCN3CCN(c4cc5c(cc4F)c(=O)c(C(=O)O)cn5C4CC4)CC3)nc2N1 [Example 11, 1-Cyclopropyl-6-fluoro-4-oxo-7-(4-{2-[(3-oxo-3,4-dihydro-2H-pyrido[3,2-b][1,4]thiazin-6-ylmethyl)-amino]-ethyl}-piperazin-1-yl)-1,4-dihydro-quinoline-3-carboxylic acid] |

— US9540399B2, “Quinolone derivatives” (priority 2013, dated 2017)
